This is an account of results in patent US11701364B2, “Agonists of stimulator of interferon genes sting” (The Scripps Research Institute, priority 2018, dated 2023).

Structures are written as SMILES.

Broadly, the EC50 is the concentration that produces a half-maximal response.

For this assay, the target named is T1, STING (Stimulator of Interferon Genes) (Homo sapiens, UniProt Q86WV6, G230A/H232R/R293Q/R71H).
T1 construct: host or cells: THP-1-Lucia ISG cells (human monocytic line)
As to the kind of experiment: ISG-LUC activation assay (ISRE-Luciferase assay in THP-1 Lucia ISG reporter cells). Type of assay: cell-based. The settings on record: THP-1 Lucia ISG cells, 24 hours, luciferase reporter; read-out: ISG-LUC activation assay (EC50). An excerpt: This has been established using a primary assay involving a human THP-1 cell line carrying an IRF-inducible reporter with 5 copies of the IFN signaling response element. Counter screens, involving alternative reporter constructs, rodent cell-based assays, as well as cGAS and STING knock-out cell lines, are used to eliminate luciferase artifacts and ensure human-rodent cross species reactivity, as well as pathway selectivity. Biochemical assays, involving cGAS enzymatic activity and STING protein binding assays, are used to identify the specific target of identified hits.
THP-1 Lucia ISG cells were resuspended in low-serum growth media (2% FBS) at a density of 5×10^5 cells/ml and treated with test article or vehicle (DMSO). 50 μL of cells were seeded into each well of a 384-well white greiner plates and incubated for 24 hours. To evaluate expression of the luciferase reporter, 30 μl of Quanti-luc (Invivogen) detection reagent was added to each well and luminescence was read using an Envision plate reader (Perkin Elmer) set with an integration time of 0.1 seconds.
(In general: In a reporter assay the amount or activity of a reporter protein is the signal.)

T1 sequence (Q86WV6 whole entry R71H/G230A/H232R/R293Q): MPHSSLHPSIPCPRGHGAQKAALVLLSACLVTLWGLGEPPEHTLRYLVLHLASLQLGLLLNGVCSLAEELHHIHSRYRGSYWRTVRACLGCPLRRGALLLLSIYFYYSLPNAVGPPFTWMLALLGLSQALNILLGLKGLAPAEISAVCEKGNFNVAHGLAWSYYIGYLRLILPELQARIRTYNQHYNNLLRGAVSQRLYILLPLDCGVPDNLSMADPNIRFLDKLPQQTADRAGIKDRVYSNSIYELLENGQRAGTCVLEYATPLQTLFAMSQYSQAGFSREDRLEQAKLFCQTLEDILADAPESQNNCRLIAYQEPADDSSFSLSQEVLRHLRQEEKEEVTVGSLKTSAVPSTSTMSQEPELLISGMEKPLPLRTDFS

Consider `O=C(Nc1cc(Cl)c(F)cc1C(=O)O)c1ccc(-n2ccnc2)nn1` [Compound 53], for which the EC50 is around 625 nM.

`COC(=O)c1cc(O)c(F)cc1NC(=O)c1ccc(-n2ccnc2)nn1` [Compound 142]: the EC50 is above 50000 nM.

In the case of `COC(=O)c1ccncc1NC(=O)c1ccc(-n2ccnc2)nn1` [Compound 8], the EC50 came to 2570 nM.

As for `COC(=O)c1nc(OC)cnc1NC(=O)c1ccc(-n2ccnc2)nn1` [Compound 166], the EC50 turned out to be 12100 nM.

In the case of `COC(=O)C1=C(NC(=O)c2ccc(-n3ccnc3)nn2)CC(C)(C)C1` [Compound 77], the concentration for a half-maximal effect (EC50) was above 50000 nM.

With `O=c1oc(-c2ccc(-n3ccnc3)nn2)nc2ccc(F)c(F)c12` [Compound 132], the EC50 was determined as 4280 nM.

`CC(C)OC(=O)c1cc(F)c(F)cc1NC(=O)c1ccc(-n2ccnc2)nn1` [Compound 24]: the EC50 amounted to 736 nM.

In the case of `COC(=O)c1ncc(F)cc1NC(=O)c1ccc(-n2ccnc2)nn1` [Compound 69], the EC50 was 2790 nM.

On to `COC(=O)c1cccc(C)c1NC(=O)c1ccc(-n2ccnc2)nn1` [Compound 91], for which the half-maximal effective concentration (EC50) is around 5070 nM.

Take `O=C(Nc1cc(Cl)c(Cl)cc1C(=O)O)c1ccc(-n2ccnc2)nn1` [Compound 103]: the EC50 was 451 nM.

As to `O=C(Nc1cc(F)c(OC(F)F)cc1C(=O)O)c1ccc(-n2ccnc2)nn1` [Compound 84], the 50% effective concentration (EC50) was found to be 8590 nM.

Turning to `N=C(N)NCCC[C@H](NC(=O)c1cc(F)c(F)cc1NC(=O)c1ccc(-n2ccnc2)nn1)C(N)=O` [Compound 124], the EC50 turned out to be 8080 nM.

Consider `COC(=O)c1nc(OC)ccc1NC(=O)c1ccc(-n2ccnc2)nn1` [Compound 74], for which the concentration giving a half-maximal response (EC50) came out at 1360 nM.

For `CCc1ccc(NC(=O)c2ccc(-n3ccnc3)nn2)c(C(=O)O)c1` [Compound 79], the 50% effective concentration (EC50) was above 20000 nM.

For the molecule `CCOC(=O)C1=C(NC(=O)c2ccc(-n3ccnc3)nn2)CCC1` [Compound 113], the EC50 was 18700 nM.

Turning to `O=c1oc(-c2ccc(-n3ccnc3)nn2)nc2cc(Cl)c(Cl)cc12` [Compound 35], the EC50 turned out to be 61.7 nM.

Turning to `O=C(Nc1cc2ccccc2nc1C(=O)O)c1ccc(-n2ccnc2)nn1` [Compound 154], the concentration giving a half-maximal response (EC50) was around 10400 nM.

With `COC(=O)c1cc(OC)c(F)cc1NC(=O)c1ccc(-n2ccnc2)nn1` [Compound 28], the EC50 came out at 95.8 nM.

In the case of `CCOC(=O)C1=C(NC(=O)c2ccc(-n3ccnc3)nn2)CCCCC1` [Compound 120], the 50% effective concentration (EC50) was above 50000 nM.

Regarding `CCCc1ccc(NC(=O)c2ccc(-n3ccnc3)nn2)c(C(=O)O)c1` [Compound 171], the EC50 was above 20000 nM.

Consider `COC(=O)c1ncc(C(F)(F)F)cc1NC(=O)c1ccc(-n2ccnc2)nn1` [Compound 152], for which the concentration giving a half-maximal response (EC50) is around 1270 nM.

Turning to `COC(=O)c1cccc(Cl)c1NC(=O)c1ccc(-n2ccnc2)nn1` [Compound 96], the 50% effective concentration (EC50) turned out to be 21100 nM.

As for `COC(=O)c1cc(C(F)(F)F)ccc1NC(=O)c1ccc(-n2ccnc2)nn1` [Compound 26], the EC50 came out at 114 nM.

For the molecule `COC(=O)c1cc(C#N)ccc1NC(=O)c1ccc(-n2ccnc2)nn1` [Compound 49], the EC50 came out at 588 nM.

With `O=c1oc(-c2ccc(-n3ccnc3)nn2)nc2ccc(S(F)(F)(F)(F)F)cc12` [Compound 161], the half-maximal effective concentration (EC50) was above 20000 nM.

As for `COC(=O)c1c(F)cccc1NC(=O)c1ccc(-n2ccnc2)nn1` [Compound 72], the EC50 was 1670 nM.

As for `Cc1cc(C(N)=O)c(NC(=O)c2ccc(-n3ccnc3)nn2)cc1F` [Compound 134], the concentration for a half-maximal effect (EC50) is above 50000 nM.

Regarding `Cc1ccc(C(=O)OC(C)C)c(NC(=O)c2ccc(-n3ccnc3)nn2)c1` [Compound 66], the half-maximal effective concentration (EC50) was 518 nM.

`O=C(Nc1ccc(C2CC2)cc1C(=O)O)c1ccc(-n2ccnc2)nn1` [Compound 85]: the EC50 is around 16600 nM.

Regarding `CCOC(=O)C1=C(NC(=O)c2ccc(-n3ccnc3)nn2)COCC1` [Compound 129], the EC50 was 10700 nM.

Consider `COC(=O)c1cc(F)cc(C)c1NC(=O)c1ccc(-n2ccnc2)nn1` [Compound 175], for which the concentration giving a half-maximal response (EC50) is around 2810 nM.

Consider `COC(=O)c1nc(OC)ncc1NC(=O)c1ccc(-n2ccnc2)nn1` [Compound 71], for which the EC50 is 1660 nM.

`COC(=O)c1cc(OC)c(Cl)cc1NC(=O)c1ccc(-n2ccnc2)nn1` [Compound 57]: the concentration giving a half-maximal response (EC50) is below 19.5 nM.

As for `O=C(Nc1cc(Cl)nnc1C(=O)O)c1ccc(-n2ccnc2)nn1` [Compound 157], the concentration for a half-maximal effect (EC50) was above 50000 nM.

For `COC(=O)c1nn(C)cc1NC(=O)c1ccc(-n2ccnc2)nn1` [Compound 119], the concentration for a half-maximal effect (EC50) is 5890 nM.

Turning to `Nc1cc(F)c(F)cc1NC(=O)c1ccc(-n2ccnc2)nn1` [Compound 144], the concentration for a half-maximal effect (EC50) was above 50000 nM.

Regarding `N#Cc1ccc(C(=O)O)c(NC(=O)c2ccc(-n3ccnc3)nn2)c1` [Compound 165], the EC50 was determined as 4090 nM.

Turning to `COc1cc(NC(=O)c2ccc(-n3ccnc3)nn2)c(C(=O)O)cc1F` [Compound 54], the concentration giving a half-maximal response (EC50) was found to be 248 nM.

As to `Cc1cc2nc(-c3ccc(-n4ccnc4)nn3)oc(=O)c2cc1C` [Compound 9], the EC50 amounted to 163 nM.

As for `Cc1cc(NC(=O)c2ccc(-n3ccnc3)nn2)c(C(=O)OCCCCO)cc1C` [Compound 46], the EC50 is 418 nM.

As for `O=C(Nc1ccc2ccccc2c1C(O)(C(F)(F)F)C(F)(F)F)c1ccc(-n2ccnc2)nn1` [Compound 121], the EC50 was 1830 nM.

`NC(=O)c1cc(Cl)c(Cl)cc1NC(=O)c1ccc(-n2ccnc2)nn1` [Compound 138]: the EC50 was above 50000 nM.

Regarding `COC(=O)c1c(F)ccc(F)c1NC(=O)c1ccc(-n2ccnc2)nn1` [Compound 3], the half-maximal effective concentration (EC50) worked out at 10200 nM.

As for `CC(C)COC(=O)c1ccccc1NC(=O)c1ccc(-n2ccnc2)nn1` [Compound 22], the EC50 was found to be 895 nM.

For the molecule `COC(=O)c1cc(C(F)(F)F)c(F)cc1NC(=O)c1ccc(-n2ccnc2)nn1` [Compound 70], the EC50 amounted to 1720 nM.

As for `COC(=O)c1cc(F)c(C)nc1NC(=O)c1ccc(-n2ccnc2)nn1` [Compound 149], the EC50 came out at 30100 nM.

On to `CCOC(=O)C1=C(NC(=O)c2ccc(-n3ccnc3)nn2)CCC(C)C1` (stereo not shown) [Compound 67], for which the EC50 turned out to be 2950 nM.

For the molecule `CCN(CC)CC(C)(C)NC(=O)c1cc(F)c(F)cc1NC(=O)c1ccc(-n2ccnc2)nn1` [Compound 163], the EC50 stood at 16600 nM.

Consider `COC(=O)c1cc(C#N)cc(F)c1NC(=O)c1ccc(-n2ccnc2)nn1` [Compound 73], for which the half-maximal effective concentration (EC50) is 2370 nM.

With `COC(=O)c1cccc(F)c1NC(=O)c1ccc(-n2ccnc2)nn1` [Compound 156], the 50% effective concentration (EC50) was above 50000 nM.

Consider `CCc1ccc(NC(=O)c2ccc(-n3ccnc3)nn2)c(C(=O)OC)c1` [Compound 20], for which the half-maximal effective concentration (EC50) worked out at 418 nM.

With `O=C(Nc1cc(F)c(F)cc1C(=O)NO)c1ccc(-n2ccnc2)nn1` [Compound 150], the EC50 was 12200 nM.

Take `O=c1oc(-c2ccc(-n3ccnc3)nn2)nc2cc(F)c(F)cc12` [Compound 29]: the concentration for a half-maximal effect (EC50) came to 140 nM.

As to `O=C(Nc1cc(F)c(F)cc1C(=O)NC1CCC(O)(C(F)(F)F)CC1)c1ccc(-n2ccnc2)nn1` (stereo not shown) [Compound 87], the EC50 is above 20000 nM.

Turning to `COC(=O)c1cc(F)c(OC)c(F)c1NC(=O)c1ccc(-n2ccnc2)nn1` [Compound 59], the EC50 came to 780 nM.

Take `COC(=O)c1cc(NC(=O)c2ccc(-n3ccnc3)nn2)cc(F)c1F` [Compound 10]: the 50% effective concentration (EC50) amounted to 468 nM.

In the case of `COC(=O)c1n[nH]cc1NC(=O)c1ccc(-n2ccnc2)nn1` [Compound 123], the EC50 turned out to be 2990 nM.

Turning to `COC(=O)c1cc2c(cc1NC(=O)c1ccc(-n3ccnc3)nn1)OCO2` [Compound 98], the EC50 amounted to 2680 nM.

On to `COC(=O)c1cc(C#N)c(F)cc1NC(=O)c1ccc(-n2ccnc2)nn1` [Compound 55], for which the EC50 was 221 nM.

For `COC(=O)c1cc(F)c(F)cc1NC(=O)c1ccc(-n2ccnc2)nn1` [Compound 107], the EC50 worked out at 415 nM.

On to `COC(=O)c1ccccc1NC(=O)c1ccc(-n2cnc(C)c2)nn1` [Compound 93], for which the concentration for a half-maximal effect (EC50) was above 20000 nM.

Regarding `COC(=O)c1c(F)ccc(Cl)c1NC(=O)c1ccc(-n2ccnc2)nn1` [Compound 99], the concentration giving a half-maximal response (EC50) is 11900 nM.

Turning to `CCOC(=O)C1=C(NC(=O)c2ccc(-n3ccnc3)nn2)CCCC1` [Compound 112], the EC50 stood at 1500 nM.

On to `COC(=O)c1ccc(OC)cc1NC(=O)c1ccc(-n2ccnc2)nn1` [Compound 105], for which the EC50 was determined as 192 nM.

Take `COC(=O)c1ccc(C(=O)OC)c(NC(=O)c2ccc(-n3ccnc3)nn2)c1` [Compound 159]: the EC50 is above 20000 nM.

Turning to `CCOC(=O)C1=C(NC(=O)c2ccc(-n3ccnc3)nn2)C[C@@H](C)O[C@H]1C` [Compound 135], the concentration giving a half-maximal response (EC50) worked out at 12300 nM.

For the molecule `CCOC(=O)C1=C(NC(=O)c2ccc(-n3ccnc3)nn2)CCC(F)(F)C1` [Compound 131], the EC50 turned out to be 3480 nM.

With `CCOC(=O)c1ccccc1NC(=O)c1ccc(-n2ccnc2)nn1` [Compound 64], the EC50 came to 926 nM.

Take `COC(=O)c1cc(F)cc(F)c1NC(=O)c1ccc(-n2ccnc2)nn1` [Compound 19]: the concentration giving a half-maximal response (EC50) stood at 817 nM.

For `O=c1oc(-c2ccc(-n3ccnc3)nn2)nc2cc(F)c(OC(F)(F)F)cc12` [Compound 42], the concentration giving a half-maximal response (EC50) stood at 373 nM.

For the molecule `CCOC(=O)c1nc(C)ccc1NC(=O)c1ccc(-n2ccnc2)nn1` [Compound 30], the EC50 is 149 nM.

In the case of `COC(=O)c1cc(F)c(C2CC2)cc1NC(=O)c1ccc(-n2ccnc2)nn1` [Compound 56], the EC50 was 302 nM.

For `Cc1cc(C(=O)O)c(NC(=O)c2ccc(-n3ccnc3)nn2)cc1C(F)(F)F` [Compound 102], the concentration for a half-maximal effect (EC50) was found to be 12100 nM.
